# Test results reported in US20250145589A1, “PYRIDINE DERIVATIVE AND USE THEREOF” (SICHUAN HUIYU PHARMACEUTICAL CO., LTD., priority 2021, published 2025).
# pIC50: −log10 of the molar value. Read-outs that look alike come from different tables or passages of the source.
# Columns and labels:
# PI3Kα = PI3Kα (Homo sapiens (Human), UniProt P42336); experiment: Inhibition of PI3Kα efficacy assay (ADP-Glo kinase assay); format: biochemical; settings: read-out: PI3Kα inhibitory activity (IC50)
# Procedure, shortened: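 ADP-Glo luminescent detection of ADP from PI3Kα acting on PI substrate with ATP, 60 min at RT; compounds in 8-point five-fold serial dilution from 2 mM DMSO stock. IC50 from four-parameter variable-slope fit.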
# PI3Kδ = PI3Kδ (Homo sapiens (Human), UniProt O00329); experiment: Inhibition of PI3Kδ efficacy assay (ADP-Glo kinase assay); format: biochemical; settings: Table 2; read-out: PI3Kδ inhibitory activity (IC50)
# PI3Kδ, sequence (O00329 whole entry): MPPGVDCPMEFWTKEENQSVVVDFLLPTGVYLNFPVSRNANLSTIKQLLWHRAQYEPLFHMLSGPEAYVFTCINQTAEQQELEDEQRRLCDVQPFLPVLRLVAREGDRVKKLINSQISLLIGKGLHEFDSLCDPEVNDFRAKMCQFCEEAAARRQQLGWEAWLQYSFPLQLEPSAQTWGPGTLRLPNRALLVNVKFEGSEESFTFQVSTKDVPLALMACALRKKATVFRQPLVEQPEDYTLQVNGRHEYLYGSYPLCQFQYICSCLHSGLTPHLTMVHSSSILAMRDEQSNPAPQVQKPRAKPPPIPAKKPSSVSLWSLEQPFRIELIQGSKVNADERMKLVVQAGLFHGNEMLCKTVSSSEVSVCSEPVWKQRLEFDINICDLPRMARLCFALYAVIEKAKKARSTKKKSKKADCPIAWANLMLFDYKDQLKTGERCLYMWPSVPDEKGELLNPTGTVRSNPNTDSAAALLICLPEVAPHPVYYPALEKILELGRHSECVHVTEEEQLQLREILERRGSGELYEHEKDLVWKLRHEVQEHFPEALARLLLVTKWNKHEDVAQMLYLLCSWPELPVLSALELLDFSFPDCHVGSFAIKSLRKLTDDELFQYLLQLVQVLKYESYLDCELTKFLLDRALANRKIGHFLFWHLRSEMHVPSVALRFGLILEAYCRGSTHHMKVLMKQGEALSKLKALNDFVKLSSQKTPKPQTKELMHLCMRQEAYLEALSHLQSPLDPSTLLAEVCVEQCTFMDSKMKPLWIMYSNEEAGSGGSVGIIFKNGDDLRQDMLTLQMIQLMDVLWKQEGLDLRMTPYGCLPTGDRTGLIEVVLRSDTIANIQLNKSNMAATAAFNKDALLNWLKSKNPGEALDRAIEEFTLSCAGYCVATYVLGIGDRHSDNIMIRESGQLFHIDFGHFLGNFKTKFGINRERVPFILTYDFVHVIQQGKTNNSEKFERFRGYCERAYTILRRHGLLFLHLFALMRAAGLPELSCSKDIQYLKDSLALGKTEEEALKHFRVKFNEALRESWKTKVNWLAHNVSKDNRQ
# PI3Kδ, sequence (P27986 whole entry partner): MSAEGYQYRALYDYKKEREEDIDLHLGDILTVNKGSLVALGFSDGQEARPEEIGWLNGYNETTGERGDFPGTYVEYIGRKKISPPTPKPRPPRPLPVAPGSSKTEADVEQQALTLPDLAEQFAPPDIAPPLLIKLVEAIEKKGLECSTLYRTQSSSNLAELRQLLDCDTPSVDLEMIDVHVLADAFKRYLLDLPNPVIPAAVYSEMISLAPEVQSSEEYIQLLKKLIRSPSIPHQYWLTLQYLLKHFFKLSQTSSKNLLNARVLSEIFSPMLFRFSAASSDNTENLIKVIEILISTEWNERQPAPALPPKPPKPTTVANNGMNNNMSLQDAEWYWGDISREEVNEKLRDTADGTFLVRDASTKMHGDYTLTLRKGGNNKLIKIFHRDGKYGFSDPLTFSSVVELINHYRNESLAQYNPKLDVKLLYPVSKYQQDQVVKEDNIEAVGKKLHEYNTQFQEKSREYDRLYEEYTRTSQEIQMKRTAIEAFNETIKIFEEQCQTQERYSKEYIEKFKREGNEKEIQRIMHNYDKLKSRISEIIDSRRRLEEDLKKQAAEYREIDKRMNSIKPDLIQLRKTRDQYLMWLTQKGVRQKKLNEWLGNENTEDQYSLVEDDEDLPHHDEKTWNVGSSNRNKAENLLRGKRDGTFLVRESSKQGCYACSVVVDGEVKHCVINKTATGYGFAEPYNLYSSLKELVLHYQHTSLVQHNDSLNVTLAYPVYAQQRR
# Procedure, shortened: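 Luminescent ADP-Glo readout of PI3Kδ: after a 60 min RT reaction with PI/ATP substrate, ATP depletion (40 min) and ADP detection (40 min) steps followed. Compounds tested as eight five-fold serial dilutions; inhibition rates fitted to log(inhibitor) vs. response, variable slope, for IC50.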
# [1] = system: NCI-H358 cells (KRAS G12C mutant); experiment: NCI-H358 cell proliferation inhibition (CellTiter-Glo); format: cell-based; settings: H358 cells (G12C mutation), 3 days, Table 6, read-out: NCI-H358 (IC50)
# [2] = system: MIA PaCa-2 cells (KRAS G12C mutant); experiment: MIA PaCa-2 cell anti-proliferation (CellTiter-Glo); format: cell-based; settings: Homo sapiens, 72 h; MIA Paca-2 cells, 3 days, Table 7; read-out: MIA PaCa-2 (IC50)
# Procedure: The number of viable cells was determined using the CellTiter-Glo® assay to evaluate the anti-proliferation efficacy of compounds. […] The compounds were serially diluted 4-fold in DMSO to obtain 9 concentrations, and then further diluted with DMEM (10% FBS+2.5% horse serum+1% penicillin/streptomycin) cell culture medium to obtain the working solutions (2×), 15 μL of each working solution was added to the cell culture supernatant in each well, and the cells were further incubated for 3 days at 37° C. with 5% CO2. The plate was then equilibrated with CellTiter-Glo® reagent at room temperature (25° C.) for 30 minutes. After adding 25 μL of CellTiter-Glo®, reagent, the cells were thoroughly mixed with the CellTiter-Glo® reagent using a microplate shaker for 2 minutes, and then incubated at room temperature for at least 30 minutes. […] Data were analyzed using GraphPad Prism for IC50 values (Note: The negative control refers to the group without inhibitor).
# PI3Kα, sequence (P42336 whole entry): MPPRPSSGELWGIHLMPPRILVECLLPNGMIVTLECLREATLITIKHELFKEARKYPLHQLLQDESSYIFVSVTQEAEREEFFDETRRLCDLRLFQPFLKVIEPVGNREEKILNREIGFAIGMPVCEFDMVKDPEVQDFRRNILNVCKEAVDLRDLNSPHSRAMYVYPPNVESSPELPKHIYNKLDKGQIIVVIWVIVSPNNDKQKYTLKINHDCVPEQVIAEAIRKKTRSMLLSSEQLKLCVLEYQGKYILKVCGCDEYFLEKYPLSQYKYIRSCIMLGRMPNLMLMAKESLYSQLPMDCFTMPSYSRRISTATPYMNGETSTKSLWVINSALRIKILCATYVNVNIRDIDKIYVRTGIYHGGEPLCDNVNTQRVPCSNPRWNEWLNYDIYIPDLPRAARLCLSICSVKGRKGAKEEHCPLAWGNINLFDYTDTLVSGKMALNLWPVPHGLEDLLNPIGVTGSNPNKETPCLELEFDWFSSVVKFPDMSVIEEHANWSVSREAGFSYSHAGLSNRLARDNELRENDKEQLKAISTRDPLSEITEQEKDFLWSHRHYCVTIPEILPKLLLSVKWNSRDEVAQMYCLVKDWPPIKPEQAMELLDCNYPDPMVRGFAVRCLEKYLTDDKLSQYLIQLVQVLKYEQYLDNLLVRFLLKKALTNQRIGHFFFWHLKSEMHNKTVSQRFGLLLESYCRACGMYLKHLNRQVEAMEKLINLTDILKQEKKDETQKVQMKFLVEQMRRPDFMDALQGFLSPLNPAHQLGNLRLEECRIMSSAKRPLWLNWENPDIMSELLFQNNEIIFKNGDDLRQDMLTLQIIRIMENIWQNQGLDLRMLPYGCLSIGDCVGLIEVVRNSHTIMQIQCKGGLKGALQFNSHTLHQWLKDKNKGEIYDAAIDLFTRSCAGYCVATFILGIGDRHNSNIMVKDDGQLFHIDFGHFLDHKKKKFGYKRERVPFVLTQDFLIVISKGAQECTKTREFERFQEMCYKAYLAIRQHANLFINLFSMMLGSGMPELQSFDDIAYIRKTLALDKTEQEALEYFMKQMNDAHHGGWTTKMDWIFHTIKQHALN
# PI3Kα, sequence (P27986 whole entry partner): as the sequence (P27986 whole entry partner) above
pIC50 (PI3Kα; Table 2),pIC50 (PI3Kδ),"pIC50 ([1]; Homo sapiens, NCI-H358, 72 h)",pIC50 [2],pIC50 (PI3Kα; Table 4),SMILES,pIC50 [1]
8.60,7.78,7.46,–,–,"COc1ncc(-c2ccc3ncnc(N4CCN(C(=O)C5=CC(=O)CCC5)CC4)c3c2)cc1NS(=O)(=O)c1ccc(Cl)s1 [Example 73, 5-chloro-N-(2-methoxy-5-(4-(4-(3-oxocyclohexane-1-en-1-carbonyl)piperazin-1-yl)quinazoline-6-yl)pyridin-3-yl)thiophene-2-sulfonamide]",–
8.74,7.63,7.58,–,–,"COc1ncc(-c2ccc3ncnc(N4CCN(C(=O)C5=CC(=O)CC5)CC4)c3c2)cc1NS(=O)(=O)c1ccc(F)cc1F [Example 74, 2,4-difluoro-N-(2-methoxy-5-(4-(4-(3-oxocyclopent-1-ene-1-carbonyl)piperazin-1-yl)quinazolin-6-yl)pyridin-3-yl)benzenesulfonamide]",–
8.12,7.60,5.47,–,–,"COc1ncc(-c2ccc3ncnc(N4CCN(C(=O)/C=C/P(C)(C)=O)CC4)c3c2)cc1NS(=O)(=O)c1ccc(F)cc1F [Example 76, (E)-N-(5-(4-(4-(3-(dimethylphosphoryl)acryloyl)piperazin-1-yl)quinazolin-6-yl)-2-methoxypyridin-3-yl)-2,4-difluorobenzenesulfonamide]",–
8.21,7.75,6.34,–,–,"CCc1ncc(-c2ccc3ncnc(N4CCN(C(=O)/C=C/C(C)=O)CC4)c3c2)cc1NS(=O)(=O)c1ccc(F)cc1F [Example 83, (E)-N-(2-ethyl-5-(4-(4-(4-oxopent-2-enoyl)piperazin-1-yl)quinazolin-6-yl)pyridin-3-yl)-2,4-difluorobenzenesulfonamide]",–
6.90,6.10,6.39,–,–,"CC(=O)/C=C/C(=O)N1CCN(c2ncnc3ccc(-c4cnc(OC5CCCC5)c(NS(=O)(=O)c5ccc(F)cc5F)c4)cc23)CC1 [Example 107, (E)-N-(2-(cyclopentyloxy)-5-(4-(4-(4-oxopent-2-enoyl)piperazin-1-yl)quinazolin-6-yl)pyridin-3-yl)-2,4-difluorobenzenesulfonamide]",–
8.30,7.62,7.14,–,–,"COc1ncc(-c2ccc3ncnc(N4CCN(C(=O)/C=C/C(C)=O)[C@@H](CC#N)C4)c3c2)cc1NS(=O)(=O)c1ccc(F)cc1F [Example 112, (S,E)-N-(5-(4-(3-(cyanomethyl)-4-(4-oxopent-2-enoyl)piperazin-1-yl)quinazolin-6-yl)-2-methoxypyridin-3-yl)-2,4-difluorobenzenesulfonamide]",–
8.54,7.94,7.24,–,–,"C=C(F)C(=O)N1CCN(c2ncnc3ccc(-c4cnc(OC)c(NS(=O)(=O)c5ccc(F)cc5F)c4)cc23)C[C@@H]1CC#N [Example 113, (S)-N-(5-(4-(3-(cyanomethyl)-4-(2-fluoroacryloyl)piperazin-1-yl)quinazolin-6-yl)-2-methoxypyridin-3-yl)-2,4-difluorobenzenesulfonamide]",–
8.85,7.55,7.46,–,–,"C=CC(=O)N1CCN(c2ncnc3ccc(-c4cnc(OC)c(NS(=O)(=O)c5ccc(F)cc5F)c4)cc23)C[C@@H]1CC#N [Example 114, (S)-N-(5-(4-(4-acryloyl-3-(cyanomethyl)piperazin-1-yl)quinazolin-6-yl)-2-methoxypyridin-3-yl)-2,4-difluorobenzenesulfonamide]",–
8.55,7.93,7.17,–,–,"C=CC(=O)N1CCN(c2ncnc3ccc(-c4cnc(OC)c(NS(=O)(=O)c5ccc(F)cn5)c4)cc23)CC1 [Example 119, N-(5-(4-(4-acryloylpiperazin-1-yl)quinazolin-6-yl)-2-methoxypyridin-3-yl)-5-fluoropyridine-2-sulfonamide]",–
8.52,7.94,7.02,–,–,"C=C(F)C(=O)N1CCN(c2ncnc3ccc(-c4cnc(OC)c(NS(=O)(=O)c5ccc(F)cn5)c4)cc23)CC1 [Example 120, 5-fluoro-N-(5-(4-(4-(2-fluoroacryloyl)piperazin-1-yl)quinazolin-6-yl)-2-methoxypyridin-3-yl)pyridine-2-sulfonamide]",–
8.72,7.50,7.65,–,–,"COc1ncc(-c2ccc3ncnc(N4CCN(C(=O)C5OC5C(C)=O)CC4)c3c2)cc1NS(=O)(=O)c1ccc(F)cc1F (stereo not shown) [Example 127, N-(5-(4-(4-(3-acetyloxirane-2-carbonyl)piperazin-1-yl)quinazolin-6-yl)-2-methoxypyridin-3-yl)-2,4-difluorobenzenesulfonamide]",–
8.59,7.82,6.35,–,–,"COc1ncc(-c2ccc3ncnc(NC4CCN(C(=O)/C=C/C(C)=O)CC4)c3c2)cc1NS(=O)(=O)c1ccc(F)cc1F [Example 130, (E)-2,4-difluoro-N-(2-methoxy-5-(4-((1-(4-oxopent-2-enoyl)piperidin-4-yl)amino)quinazolin-6-yl)pyridin-3-yl)benzenesulfonamide]",–
–,–,–,7.71,–,"COc1ncc(-c2ccc3ncnc(N4CCN(C(=O)/C=C/C(C)=O)CC4)c3n2)cc1NS(=O)(=O)c1ccc(F)cc1 [Example 134, (E)-4-fluoro-N-(2-methoxy-5-(4-(4-(4-oxopent-2-enoyl)piperazin-1-yl)pyrido[3,2-d]pyrimidin-6-yl)pyridin-3-yl)benzenesulfonamide]",–
–,–,–,8.04,–,"COc1ncc(-c2ccc3ncnc(N4CCN(C(=O)/C=C/C(C)=O)CC4)c3n2)cc1NS(=O)(=O)c1ccc(F)cc1Cl [Example 135, (E)-2-chloro-4-fluoro-N-(2-methoxy-5-(4-(4-(4-oxopent-2-enoyl)piperazin-1-yl)pyrido[3,2-d]pyrimidin-6-yl)pyridin-3-yl)benzenesulfonamide]",–
–,–,–,8.18,–,"COc1ncc(-c2ccc3ncnc(N4CCC5(CC4)CN(C(=O)/C=C/C(C)=O)C5)c3n2)cc1NS(=O)(=O)c1c(F)cccc1F [Example 136, (E)-2,6-difluoro-N-(2-methoxy-5-(4-(2-(4-oxopent-2-enoyl)-2,7-diazaspiro[3.5]nonan-7-yl)pyrido[3,2-d]pyrimidin-6-yl)pyridin-3-yl)benzenesulfonamide]",–
–,–,–,7.98,–,"COc1ncc(-c2ccc3ncnc(N4CCN(C(=O)/C=C/C(C)=O)C[C@@H]4C)c3n2)cc1NS(=O)(=O)c1c(F)cccc1F [Example 138, (S,E)-2,6-difluoro-N-(2-methoxy-5-(4-(2-methyl-4-(4-oxopent-2-enoyl)piperazin-1-yl)pyrido[3,2-d]pyrimidin-6-yl)pyridin-3-yl)benzenesulfonamide]",–
–,–,6.94,7.34,8.74,"COc1ncc(-c2ccc3ncnc(N4CCN(C(=O)/C(C#N)=C/C(C)(C)C)CC4)c3c2)cc1NS(=O)(=O)c1ccc(F)cc1F [Example 180, (E)-N-(5-(4-(4-(2-cyano-4,4-dimethyl-pent-2-enoyl)piperazin-1-yl)quinazolin-6-yl)-2-methoxy-pyridin-3-yl)-2,4-difluoro-benzene-sulfonamide]",–
–,–,7.40,7.13,–,"C=CS(=O)(=O)N1CCN(c2ncnc3ccc(-c4cnc(OC)c(NS(=O)(=O)c5ccc(F)cc5F)c4)cc23)CC1 [Example 207, 2,4-difluoro-N-(2-methoxy-5-(4-(4-(vinylsulfonyl)piperazin-1-yl)quinazolin-6-yl)pyridin-3-yl)benzenesulfonamide]",–

SMILES,pIC50 (PI3Kα; Table 2),pIC50 (PI3Kδ),"pIC50 ([1]; Homo sapiens, NCI-H358, 72 h)",pIC50 [2],pIC50 (PI3Kα; Table 4),pIC50 [1]
"COc1ncc(-c2ccc3ncnc(N4CCN(C(=O)/C=C/S(C)(=O)=O)CC4)c3c2)cc1NS(=O)(=O)c1ccc(F)cc1F [Example 75, (E)-2,4-difluoro-N-(2-methoxy-5-(4-(4-(3-(methylsulfonyl)acryloyl)piperazin-1-yl)quinazolin-6-yl)pyridin-3-yl)benzenesulfonamide]",9.11,7.51,6.55,–,–,–
"COc1ncc(-c2ccc3ncnc(N4CCN(C(=O)/C=C/C(C)=O)CC4)c3c2)cc1NS(=O)(=O)c1ccc(F)cn1 [Example 118, (E)-5-fluoro-N-(2-methoxy-5-(4-(4-(4-oxopent-2-enoyl)piperazin-1-yl)quinazolin-6-yl)pyridin-3-yl)pyridine-2-sulfonamide]",8.72,7.71,7.10,–,–,–
C=C1CCN(C2CN(c3ncnc4ccc(-c5cnc(OC)c(NS(=O)(=O)c6ccc(F)cc6F)c5)cc34)C2)C1=O [Example 125],8.30,7.77,–,–,–,7.01
"COc1ncc(-c2ccc3ncnc(N4CC5CCC(C4)N5C(=O)/C=C/C(C)=O)c3n2)cc1NS(=O)(=O)c1c(F)cccc1F [Example 137, 2,6-difluoro-N-(2-methoxy-5-(4-(8-((E)-4-oxopent-2-enoyl)-3,8-diazabicyclo[3.2.1]octan-3-yl)pyrido[3,2-d]pyrimidin-6-yl)pyridin-3-yl)benzenesulfonamide]",–,–,–,8.17,–,–
